Measured values from paper PMC2697495 (The Journal of pharmacy and pharmacology, 2008).
Marks after values point to notes of the source that are not given here.

Key:
[1] = test system: endogenous β-glucuronidase, HEK293 vector control; experiment: Estradiol glucuronide hydrolysis by HEK293 vector control cell microsomes; assay type: in vitro ADME, human; settings: HEK293 control 0.25 mg/ml; without saccharolactone; E-3-G 100 μM, E-17-G 200 μM; n=3
[2] = test system: human intestinal microsomes; experiment: Estradiol glucuronide formation in 6 hours by human intestinal microsomes; assay type: in vitro ADME; settings: for Apparent nmoles formed in 6 hours: intestinal microsomes 0.5 mg protein/ml, β-estradiol 100 μM and UDPGA, mean of triplicate; for Predicted actual nmoles formed in 6 hours: intestinal microsomes, apparent formed plus degraded
human kidney microsomes = experiment: Estradiol glucuronide formation in 6 hours by human kidney microsomes; assay type: in vitro ADME; settings: for Apparent nmoles formed in 6 hours: kidney microsomes 0.5 mg protein/ml, β-estradiol 100 μM and UDPGA, mean of triplicate; for Predicted actual nmoles formed in 6 hours: kidney microsomes, apparent formed plus degraded
[3] = test system: pooled human liver microsomes (pHLMs); settings: pHLMs 0.5 mg protein/ml; β-estradiol 100 μM and UDPGA; mean of triplicate
[4] = target: endogenous β-glucuronidase, human lung microsomes (Homo sapiens, UniProt P08236); experiment: Estradiol glucuronide hydrolysis by human lung microsomes; settings: lung microsomes 0.5 mg/ml; without saccharolactone; E-3-G 100 μM, E-17-G 200 μM; n=3
[5] = test system: endogenous β-glucuronidase, human kidney microsomes; experiment: Estradiol glucuronide hydrolysis by human kidney microsomes; settings: for Nmoles degraded as a % of nmoles formed: kidney microsomes; for Nmoles degraded in 6 hours: kidney microsomes 0.5 mg protein/ml, estradiol glucuronide without UDPGA; for percent glucuronide remaining after 6 hours: kidney microsomes 0.5 mg/ml, without saccharolactone, E-3-G 100 μM, E-17-G 200 μM, n=3
[6] = test system: endogenous β-glucuronidase, human intestinal microsomes; experiment: Estradiol glucuronide hydrolysis by human intestinal microsomes; settings: for Nmoles degraded as a % of nmoles formed: intestinal microsomes; for Nmoles degraded in 6 hours: intestinal microsomes 0.5 mg protein/ml, estradiol glucuronide without UDPGA; for percent glucuronide remaining after 6 hours: intestine microsomes 0.5 mg/ml, without saccharolactone, E-3-G 100 μM, E-17-G 200 μM, n=3
[7] = Estradiol glucuronide stability in phosphate buffer; settings: 50 mM phosphate buffer pH 7.5, 37 °C, no enzyme; without saccharolactone; E-3-G 100 μM, E-17-G 200 μM; n=3
[8] = target: T1, endogenous β-glucuronidase, pooled human liver microsomes (Homo sapiens, UniProt P08236); experiment: Estradiol glucuronide hydrolysis; settings: for percent glucuronide remaining after 6 hours: pHLM 0.5 mg/ml, E-3-G 100 μM, E-17-G 200 μM, n=3; for Nmoles degraded as a % of nmoles formed: pHLMs; for Nmoles degraded in 6 hours: pHLMs 0.5 mg protein/ml, estradiol glucuronide without UDPGA
T1 sequence (P08236 23-651): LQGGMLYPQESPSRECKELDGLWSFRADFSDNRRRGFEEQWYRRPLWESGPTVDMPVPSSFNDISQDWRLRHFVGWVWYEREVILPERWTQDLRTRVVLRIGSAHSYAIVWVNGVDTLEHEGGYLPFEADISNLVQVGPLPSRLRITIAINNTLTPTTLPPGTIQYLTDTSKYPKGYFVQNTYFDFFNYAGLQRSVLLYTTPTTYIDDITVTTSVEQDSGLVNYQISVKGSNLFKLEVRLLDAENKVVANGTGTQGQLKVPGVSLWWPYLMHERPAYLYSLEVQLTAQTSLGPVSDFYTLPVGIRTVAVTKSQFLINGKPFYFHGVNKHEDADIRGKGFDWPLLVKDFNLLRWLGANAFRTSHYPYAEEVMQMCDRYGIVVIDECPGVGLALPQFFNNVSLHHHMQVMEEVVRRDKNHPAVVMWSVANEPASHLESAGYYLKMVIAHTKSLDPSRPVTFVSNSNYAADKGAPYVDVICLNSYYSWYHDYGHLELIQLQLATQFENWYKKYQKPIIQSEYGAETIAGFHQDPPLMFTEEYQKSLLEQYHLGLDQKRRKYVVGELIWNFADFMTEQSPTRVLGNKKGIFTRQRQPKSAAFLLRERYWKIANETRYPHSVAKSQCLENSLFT

microsomes = settings: 50 μg alamethicin per mg microsomal protein, ref Fisher et al 2000; cited from earlier work

Row | Molecule | percent glucuronide remaining after 6 hours [1] [%] | Apparent nmoles formed in 6 hours [2] [nmol] | Predicted actual nmoles formed in 6 hours [2] [nmol] | Apparent nmoles formed in 6 hours (human kidney microsomes) [nmol] | Predicted actual nmoles formed in 6 hours (human kidney microsomes) [nmol] | Apparent nmoles formed in 6 hours [3] [nmol] | percent glucuronide remaining after 6 hours [4] [%] | Nmoles degraded as a % of nmoles formed [5] [%] | Nmoles degraded in 6 hours [5] [nmol] | percent glucuronide remaining after 6 hours [5] | Nmoles degraded as a % of nmoles formed [6] [%] | Nmoles degraded in 6 hours [6] [nmol] | percent glucuronide remaining after 6 hours [6] | percent glucuronide remaining after 6 hours [7] [%] | percent glucuronide remaining after 6 hours ([8]; with 10 mM saccharolactone) | percent glucuronide remaining after 6 hours ([8]; without saccharolactone) | Nmoles degraded in 6 hours [8] [nmol] | other results
1 | C[C@]12CC[C@@H]3c4ccc(O[C@@H]5O[C@H](C(=O)O)[C@@H](O)[C@H](O)[C@H]5O)cc4CC[C@H]3[C@@H]1CC[C@@H]2O [E-3-G, estradiol 3-glucuronide] | 102±4 | 16.7 | 16.7 | 2.99 | 2.99 | 3.51 | 85±6 | 0 | 0 | 104±1 ^a^, ^b % | 0 | 0 | 104±3% | 101±5 | 84±2 ^a % | 82±1 ^a^, ^b % | 0.36 | Nmoles degraded as a % of nmoles formed [8]: 9.30%
2 | C[C@]12CC[C@@H]3c4ccc(O)cc4CC[C@H]3[C@@H]1CC[C@@H]2O[C@@H]1O[C@H](C(=O)O)[C@@H](O)[C@H](O)[C@H]1O [E-17-G, estradiol 17-glucuronide] | 104±3 | 0.58 | 0.58 | 1.11 | 1.11 | 1.23 | 92±6 | 0 | 0 | 104±3% | 0 | 0 | 110±4 ^b % | 102±13 | 84±3% | 86±2 ^b % | 0.29 | Nmoles degraded as a % of nmoles formed ([8]; listed as Estradiol-17-Glucuronide): 19%; Nmoles degraded as a % of nmoles formed ([8]; listed as estradiol-17 glucuronide): 19%
3 | alamethicin |  |  |  |  |  |  |  |  |  |  |  |  |  |  |  |  |  | conjugation rate relative to that in absence of alamethicin (microsomes): 2 to 3 times
